Experimental findings from patent US9732094B2, “Arylquinazolines” (Merck Patent GmbH, priority 2013, dated 2017) are described below.

Data set [1] concerns the target DNA-PK phosphorylation at serine 2056 (Homo sapiens (Human), UniProt P78527). Put plainly: DNA-PK phosphorylation at serine 2056 (cellular), bleomycin-treated HCT116 cells, ELISA. Type of data set: cell-based. Conditions: cellular DNA-PK phosphorylation at serine 2056, HCT116; read-out: IC50 pDNA-PK. In short, it runs like this:
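Chemiluminescent ELISA read-out; phospho-specific signal normalised to total DNA-PKcs. Cells (HCT116) exposed 6 h to test compound plus 10 μM bleomycin to induce double-strand breaks; DMSO control served as blank.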
On the technique in general: An ELISA detects its analyte on a solid surface through an enzyme-linked reagent.

Another data set has as its target Kv11.1 (hERG) (Homo sapiens (Human), UniProt Q12809). Put plainly: Kv11.1 (hERG) ion channel activity (patch clamp assay), HEK293 cells transfected with hERG gene. The note with it: hERG patch clamp assay (cells without asterisk).
In a further data set the target is DNA-PK (Homo sapiens (Human), UniProt P78527). Put plainly: DNA-PK assay (biochemical), flashplate 33P-ATP kinase assay. The note with it: biochemical DNA-PK assay. In short, it runs like this: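 Reactions ran in streptavidin-coated flashplates and were halted by 200 mM EDTA, with a further 30 min at room temperature before saline washing.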

SMILES strings stand for the structures. Where two headings read alike, the source gives them in different places.

One may read the IC50 as the concentration that gives 50% inhibition. As usually defined, the Ki is the dissociation constant of the complex between target and ligand, obtained from inhibition or displacement.

Kv11.1 (hERG), sequence (Q12809 whole entry): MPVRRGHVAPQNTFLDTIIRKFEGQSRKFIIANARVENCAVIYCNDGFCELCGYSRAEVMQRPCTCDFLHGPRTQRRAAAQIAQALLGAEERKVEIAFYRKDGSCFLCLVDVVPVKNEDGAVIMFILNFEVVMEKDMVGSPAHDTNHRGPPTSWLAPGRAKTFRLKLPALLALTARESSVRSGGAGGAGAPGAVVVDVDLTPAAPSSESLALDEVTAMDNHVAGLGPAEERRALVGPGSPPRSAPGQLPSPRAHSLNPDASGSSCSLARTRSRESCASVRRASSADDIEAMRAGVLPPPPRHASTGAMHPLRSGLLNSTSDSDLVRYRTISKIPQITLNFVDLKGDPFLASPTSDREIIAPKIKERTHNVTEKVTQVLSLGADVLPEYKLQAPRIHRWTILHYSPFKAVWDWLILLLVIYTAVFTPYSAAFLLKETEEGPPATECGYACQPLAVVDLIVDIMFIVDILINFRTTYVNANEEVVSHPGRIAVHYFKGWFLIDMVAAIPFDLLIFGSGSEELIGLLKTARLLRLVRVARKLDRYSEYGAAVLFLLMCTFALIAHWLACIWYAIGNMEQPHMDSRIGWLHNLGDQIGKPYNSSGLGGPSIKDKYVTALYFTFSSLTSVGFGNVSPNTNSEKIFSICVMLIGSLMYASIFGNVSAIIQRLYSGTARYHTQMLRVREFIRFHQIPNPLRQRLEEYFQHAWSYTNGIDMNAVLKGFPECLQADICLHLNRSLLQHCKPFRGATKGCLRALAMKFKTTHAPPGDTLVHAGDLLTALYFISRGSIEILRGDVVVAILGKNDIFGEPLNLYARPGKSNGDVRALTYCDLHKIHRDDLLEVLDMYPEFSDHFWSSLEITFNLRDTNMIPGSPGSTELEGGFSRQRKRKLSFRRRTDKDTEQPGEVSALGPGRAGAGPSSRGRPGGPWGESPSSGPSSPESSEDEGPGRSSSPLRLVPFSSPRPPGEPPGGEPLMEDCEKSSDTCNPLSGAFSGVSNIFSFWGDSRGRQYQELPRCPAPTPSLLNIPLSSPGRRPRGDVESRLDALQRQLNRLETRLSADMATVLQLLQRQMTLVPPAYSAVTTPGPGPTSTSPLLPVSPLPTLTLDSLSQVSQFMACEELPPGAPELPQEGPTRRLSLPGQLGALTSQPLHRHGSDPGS

On to `OC(c1cc(-c2ncnc3cc(N4CCOCC4)ccc23)ccc1Cl)c1ncnc2ccoc12` (stereo not drawn) [Example 414, [2-Chloro-5-(7-morpholin-4-yl-quinazolin-4-yl)-phenyl]furo[3,2-d}-pyrimidin-4-yl-methanol], for which the IC50 was below 500 nM in data set [1] and 7 to 30 nM against DNA-PK. At Kv11.1 (hERG) (Ki [Kv1.11 hERG]), this compound had a Ki of 10000 to 15000 nM.

With `OC(c1cc(-c2ncnc3cc(N4CCOCC4)ccc23)ccc1Cl)c1ncnc2ccoc12` (stereo not drawn) [Example 415, [2-Chloro-5-(7-morpholin-4-yl-quinazolin-4-yl)-phenyl]furo[3,2-d}-pyrimidin-4-yl-methanol], the IC50 in data set [1] was below 500 nM; at DNA-PK, 3 to 7 nM. Also, the Ki on Kv11.1 (hERG) (read-out: Ki [Kv1.11 hERG]) lay within 10000 to 15000 nM.

In the case of `OC(c1cc(-c2ncnc3cc(N4CCOCC4)ccc23)ccc1Cl)c1ncnc2occc12` (stereo not drawn) [Example 416, [2-Chloro-5-(7-morpholin-4-yl-quinazolin-4-yl)-phenyl]furo[2,3-d}-pyrimidin-4-yl-methanol], the IC50 in data set [1] was 500 to 5000 nM; against DNA-PK, 3 to 7 nM. The same compound showed a Ki on Kv11.1 (hERG) (Ki [Kv1.11 hERG]) of 10000 to 15000 nM.

For `Cc1cncnc1C(O)c1cc(-c2ncnc3cc(N4CCOCC4)ccc23)ccc1Cl` (stereo not drawn) [Example 417, [2-Chloro-5-(7-morpholin-4-yl-quinazolin-4-yl)-phenyl]-(5-methyl-pyrimidin-4-yl)-methanol], the IC50 in data set [1] was 500 to 5000 nM; at DNA-PK it was 7 to 30 nM. Further, the Ki at Kv11.1 (hERG) (Ki [Kv1.11 hERG]) lay in the range of 15000 to 25000 nM.

For the compound `Cc1cncnc1C(O)c1cc(-c2ncnc3cc(N4CCOCC4)ccc23)ccc1Cl` (stereo not drawn) [Example 418, [2-Chloro-5-(7-morpholin-4-yl-quinazolin-4-yl)-phenyl]-(5-methyl-pyrimidin-4-yl)-methanol], the IC50 was 500 to 5000 nM in data set [1] and 7 to 30 nM against DNA-PK. The Ki at Kv11.1 (hERG) (read-out: Ki [Kv1.11 hERG]) is above 25000 nM.

On to `Cc1cncnc1C(O)c1cc(-c2ncnc3cc(N4CCOCC4)ccc23)ccc1Cl` (stereo not drawn) [Example 419, [2-Chloro-5-(7-morpholin-4-yl-quinazolin-4-yl)-phenyl]-(5-methyl-pyrimidin-4-yl)-methanol], for which the concentration for half-maximal inhibition (IC50) in data set [1] was 500 to 5000 nM; against DNA-PK, 7 to 30 nM. Besides, at Kv11.1 (hERG) (read-out: Ki [Kv1.11 hERG]), the Ki lay within 15000 to 25000 nM.

Consider `Cn1cnc2c(C(O)c3ccc(F)c(-c4ncnc5cc(N6CCOCC6)ccc45)c3)ncnc21` (stereo not drawn) [Example 420, [4-Fluoro-3-(7-morpholin-4-yl-quinazolin-4-yl)-phenyl]-(9-methyl-9H-purin-6-yl)-methanol], for which the results for the IC50 (in data set [1]; against DNA-PK) were 5000 to 10000 nM and 7 to 30 nM, respectively. The Ki on Kv11.1 (hERG) (read-out: Ki [Kv1.11 hERG]) is above 25000 nM.

`Cn1cnc2c(C(O)c3cc(-c4ncnc5cc(N6CCOCC6)ccc45)c(F)cc3F)ncnc21` (stereo not drawn) [Example 421, [2.4-Difluoro-5-(7-morpholin-4-yl-quinazolin-4-yl)-phenyl]-(9-methyl-9H-purin-6-yl)-methanol]: the IC50 in data set [1] lay in the range of 500 to 5000 nM; on DNA-PK it was 7 to 30 nM. Also, the Ki at Kv11.1 (hERG) (read-out: Ki [Kv1.11 hERG]) is above 25000 nM.

Consider `COc1nccnc1C(O)c1cc(-c2ncnc3cc(N4CCOCC4)ccc23)ccc1Cl` (stereo not drawn) [Example 422, [2-Chloro-5-(7-morpholin-4-yl-quinazolin-4-yl)-phenyl]-(3-methoxy-pyrazin-2-yl)-methanol], for which the IC50 is 500 to 5000 nM in data set [1] and 3 to 7 nM against DNA-PK. Moreover, the inhibition constant (Ki) at Kv11.1 (hERG) (read-out: Ki [Kv1.11 hERG]) was in the range of 10000 to 15000 nM.

On to `Cn1cnc2ncnc(C(O)c3cc(-c4ncnc5cc(N6CCOCC6)ccc45)c(F)cc3Cl)c21` (stereo not drawn) [Example 423, [2-Chloro-4-fluoro-5-(7-morpholin-4-yl-quinazolin-4-yl)-phenyl]-(7-methyl-7H-purin-6-yl)-methanol], for which the IC50 in data set [1] fell in the range of 5000 to 10000 nM; on DNA-PK, 7 to 30 nM. Besides, the Ki at Kv11.1 (hERG) (read-out: Ki [Kv1.11 hERG]) is above 25000 nM.

Take `CN1CCN(c2nccnc2C(O)c2ccc(F)c(-c3ncnc4cc(N5CCOCC5)ccc34)c2)C1=O` (stereo not drawn) [Example 424, 1-(3-{[4-Fluoro-3-(7-morpholin-4-yl-quinazolin-4-yl)-phenyl]hydroxy-methyl}pyrazin-2-yl)-3-methyl-imidazolidin-2-one]: the IC50 in data set [1] is 10000 to 30000 nM; against DNA-PK it was above 30 nM. The Ki on Kv11.1 (hERG) (read-out: Ki [Kv1.11 hERG]) is above 25000 nM.

As for `O=C1CCCN1c1nccnc1C(O)c1ccc(F)c(-c2ncnc3cc(N4CCOCC4)ccc23)c1` (stereo not drawn) [Example 425, 1-(3-{[4-Fluoro-3-(7-morpholin-4-yl-quinazolin-4-yl)-phenyl]hydroxy-methyl}pyrazin-2-yl)-pyrrolidin-2-one], the IC50 in data set [1] is 10000 to 30000 nM; against DNA-PK it was above 30 nM. In addition, the Ki at Kv11.1 (hERG) (read-out: Ki [Kv1.11 hERG]) was above 25000 nM.

Turning to `Cc1nccnc1C(O)c1cc(-c2ncnc3cc(N4CCOCC4)ccc23)ccc1Cl` (stereo not drawn) [Example 426, [2-Chloro-5-(7-morpholin-4-yl-quinazolin-4-yl)-phenyl]-(3-methyl-pyrazin-2-yl)-methanol], the IC50 lay in the range of 500 to 5000 nM in data set [1] and 7 to 30 nM against DNA-PK. Moreover, the Ki at Kv11.1 (hERG) (read-out: Ki [Kv1.11 hERG]) was above 25000 nM.

With `Cc1nccnc1C(O)c1cc(-c2ncnc3cc(N4CCOCC4)ccc23)ccc1Cl` (stereo not drawn) [Example 427, [2-Chloro-5-(7-morpholin-4-yl-quinazolin-4-yl)-phenyl]-(3-methyl-pyrazin-2-yl)-methanol], the IC50 lay within 500 to 5000 nM in data set [1] and 7 to 30 nM against DNA-PK. Further, the Ki at Kv11.1 (hERG) (Ki [Kv1.11 hERG]) is 15000 to 25000 nM.

On to `Cc1nccnc1C(O)c1cc(-c2ncnc3cc(N4CCOCC4)ccc23)ccc1Cl` (stereo not drawn) [Example 428, [2-Chloro-5-(7-morpholin-4-yl-quinazolin-4-yl)-phenyl]-(3-methyl-pyrazin-2-yl)-methanol], for which the IC50 in data set [1] was below 500 nM; against DNA-PK, 7 to 30 nM. On Kv11.1 (hERG) (Ki [Kv1.11 hERG]), the Ki was in the range of 10000 to 15000 nM.

For `OC(c1cc(-c2ncnc3cc(N4CCOCC4)ccc23)c(F)cc1Cl)c1ncnc2sccc12` (stereo not drawn) [Example 429, [2-Chloro-4-fluoro-5-(7-morpholin-4-yl-quinazolin-4-yl)-phenyl]thieno[2,3-d}-pyrimidin-4-yl-methanol], the IC50 in data set [1] is below 500 nM; against DNA-PK, below 3 nM. On Kv11.1 (hERG) (read-out: Ki [Kv1.11 hERG]), the Ki is below 10000 nM.

For the compound `OC(c1cc(-c2ncnc3cc(N4CCOCC4)ccc23)ccc1Cl)c1ncnc2sccc12` (stereo not drawn) [Example 430, [2-Chloro-5-(7-morpholin-4-yl-quinazolin-4-yl)-phenyl]thieno[2,3-d}-pyrimidin-4-yl-methanol], the IC50 in data set [1] was below 500 nM; against DNA-PK, 3 to 7 nM. For the same compound, the Ki at Kv11.1 (hERG) (read-out: Ki [Kv1.11 hERG]) is above 25000 nM.

With `OC(c1cc(-c2ncnc3cc(N4CCOCC4)ccc23)ccc1Cl)c1ncnc2ccoc12` (stereo not drawn) [Example 432, [2-Chloro-5-(7-morpholin-4-yl-quinazolin-4-yl)-phenyl]furo[3,2-d}-pyrimidin-4-yl-methanol], the IC50 in data set [1] is 500 to 5000 nM; on DNA-PK, 7 to 30 nM. Also, the Ki on Kv11.1 (hERG) (read-out: Ki [Kv1.11 hERG]) was 10000 to 15000 nM.

Regarding `Cn1cnc2ncnc(C(O)c3ccc(F)c(-c4ncnc5cc(N6CCOCC6)ccc45)c3)c21` (stereo not drawn) [Example 433, [4-Fluoro-3-(7-morpholin-4-yl-quinazolin-4-yl)-phenyl]-(7-methyl-7H-purin-6-yl)-methanol], the IC50 in data set [1] lay in the range of 500 to 5000 nM; against DNA-PK it was 7 to 30 nM. For the same compound, the Ki on Kv11.1 (hERG) (read-out: Ki [Kv1.11 hERG]) is above 25000 nM.

As for `OC(c1ccc(F)c(-c2ncnc3cc(N4CCOCC4)ccc23)c1)c1ncnc2occc12` (stereo not drawn) [Example 434, [4-Fluoro-3-(7-morpholin-4-yl-quinazolin-4-yl)-phenyl]furo[2,3-d}-pyrimidin-4-yl-methanol], the IC50 in data set [1] is below 500 nM; at DNA-PK, below 3 nM. Moreover, the Ki at Kv11.1 (hERG) (read-out: Ki [Kv1.11 hERG]) was above 25000 nM.

On to `Cn1c(C(O)c2cc(-c3ncnc4cc(N5CCOCC5)ccc34)c(F)cc2Cl)cccc1=O` (stereo not drawn) [Example 435, 6-{[2-Chloro-4-fluoro-5-(7-morpholin-4-yl-quinazolin-4-yl)-phenyl]hydroxy-methyl}-l-methyl-1H-pyridin-2-one], for which the values for the half-inhibitory concentration (IC50) (in data set [1]; against DNA-PK) were below 500 nM and 3 to 7 nM, respectively. The Ki on Kv11.1 (hERG) (read-out: Ki [Kv1.11 hERG]) was above 25000 nM.

As for `Cn1c(C(O)c2cc(-c3ncnc4cc(N5CCOCC5)ccc34)c(F)cc2F)cccc1=O` (stereo not drawn) [Example 436, 6-{[2,4-Difluoro-5-(7-morpholin-4-yl-quinazolin-4-yl)-phenyl]hydroxy-methyl}-1-methyl-1H-pyridin-2-one], the half-maximal inhibitory concentration (IC50) was 500 to 5000 nM in data set [1] and 3 to 7 nM at DNA-PK. The Ki at Kv11.1 (hERG) (read-out: Ki [Kv1.11 hERG]) is above 25000 nM.

For `OC(c1ccc(F)c(-c2ncnc3cc(N4CCOCC4)ccc23)c1)c1ncnc2sccc12` (stereo not drawn) [Example 437, [4-Fluoro-3-(7-morpholin-4-yl-quinazolin-4-yl)-phenyl]thieno[2,3-d}-pyrimidin-4-yl-methanol], the IC50 is below 500 nM in data set [1] and below 3 nM on DNA-PK. This compound registered a Ki on Kv11.1 (hERG) (Ki [Kv1.11 hERG]) of 10000 to 15000 nM.

As to `OC(c1ccc(F)c(-c2ncnc3cc(N4CCOCC4)ccc23)c1)c1ncnc2ccsc12` (stereo not drawn) [Example 438, [4-Fluoro-3-(7-morpholin-4-yl-quinazolin-4-yl)-phenyl]thieno[3,2-d}-pyrimidin-4-yl-methanol], the IC50 in data set [1] is below 500 nM; on DNA-PK, below 3 nM. The same compound displayed a Ki on Kv11.1 (hERG) (Ki [Kv1.11 hERG]) of 10000 to 15000 nM.

Turning to `OC(c1cc(-c2ncnc3cc(N4CCOCC4)ccc23)c(F)cc1F)c1ncnc2ccsc12` (stereo not drawn) [Example 439, [2,4-Difluoro-5-(7-morpholin-4-yl-quinazolin-4-yl)-phenyl]thieno[3,2-d}-pyrimidin-4-yl-methanol], the IC50 in data set [1] was below 500 nM; at DNA-PK, below 3 nM. This compound displayed a Ki at Kv11.1 (hERG) (Ki [Kv1.11 hERG]) of 10000 to 15000 nM.

With `OC(c1cc(-c2ncnc3cc(N4CCOCC4)ccc23)c(F)cc1Cl)c1ncnc2ccoc12` (stereo not drawn) [Example 440, [2-Chloro-4-fluoro-5-(7-morpholin-4-yl-quinazolin-4-yl)-phenyl]furo[3,2-d}-pyrimidin-4-yl-methanol], the IC50 in data set [1] is below 500 nM; against DNA-PK, below 3 nM. On Kv11.1 (hERG) (Ki [Kv1.11 hERG]), this compound gave a Ki of 15000 to 25000 nM.
